Experimental data from ChEMBL document CHEMBL4396953, “Synthesis and highly potent anti-inflammatory activity of licofelone- and ketorolac-based 1-arylpyrrolizin-3-ones” (2019).

Experiments:
Assay type in all cases: functional
[1] = system: Mus musculus; experiment: Antiinflammatory activity in CD1 mouse model of TPA-induced ear edema assessed as inhibition of ear edema at 2 mg/ear administered topically after TPA challenge for 30 mins and measured after 6 hrs post administration relative to control
[2] = system: Mus musculus; experiment: Antiinflammatory activity in CD1 mouse model of TPA-induced ear edema assessed as ear edema formation at 2 mg/ear administered topically after TPA challenge for 30 mins and measured after 6 hrs post administration (reference value: 17.61 to 19.82 mg)
[3] = system: Mus musculus; experiment: Antiinflammatory activity in CD1 mouse model of TPA-induced ear edema assessed as inhibition of ear edema at 0.5 mg/ear administered topically after TPA challenge for 30 mins and measured after 6 hrs post administration relative to control
[4] = system: Mus musculus; experiment: Antiinflammatory activity in CD1 mouse model of TPA-induced ear edema assessed as inhibition of ear edema at 1 mg/ear administered topically after TPA challenge for 30 mins and measured after 6 hrs post administration relative to control
[5] = system: Mus musculus; experiment: Antiinflammatory activity in CD1 mouse model of TPA-induced ear edema assessed as ear edema formation at 0.5 mg/ear administered topically after TPA challenge for 30 mins and measured after 6 hrs post administration (reference value: 17.61 to 19.82 mg)
[6] = system: Mus musculus; experiment: Antiinflammatory activity in CD1 mouse model of TPA-induced ear edema assessed as ear edema formation at 1 mg/ear administered topically after TPA challenge for 30 mins and measured after 6 hrs post administration (reference value: 17.61 to 19.82 mg)
[7] = system: Mus musculus; experiment: Antiinflammatory activity in CD1 mouse model of TPA-induced ear edema assessed as reduction in ear edema formation administered topically after TPA challenge for 30 mins and measured after 6 hrs post administration
[8] = system: J774.A1; experiment: Antiinflammatory activity in mouse J774A.1 cells LPS-induced NO production at 25 ug/ml incubated for 2 hrs followed by LPS-stimulation measured after 24 hrs by Griess assay relative to control

| SMILES | inhibition (INH) [1] | Activity [2] [mg] | inhibition (INH) [3] | inhibition (INH) [4] | Activity [5] [mg] | Activity [6] [mg] | Activity [7] | ED50 [7] [mg] | Activity [8] [%] |
| --- | --- | --- | --- | --- | --- | --- | --- | --- | --- |
| COC(=O)C1=C(c2ccc(Br)cc2)c2cccn2C1=O | 40.88% | 11.72 | 8.46% | 29.73% | 18.14 | 13.93 | Dose-dependent effect | 3.23 | – |
| COC(=O)C1=C(c2ccc([N+](=O)[O-])cc2)c2cccn2C1=O | 53.43% | 9.2 | 8.52% | 24.1% | 18.13 | 15.04 | Dose-dependent effect | 1.86 | – |
| COc1ccc2c(c1)c(CC(=O)O)c(C)n2C(=O)c1ccc(Cl)cc1 [INDOMETHACIN] | 41.47 - 61.1% | 6.99 to 10.49 | 32.12 - 41.44% | 41.97 - 52.37% | 1.22 to 11.51 | 9.01 to 9.44 | Dose-dependent effect | 1.07 to 1.29 | 64.63 |
| COC(=O)/C(=C\N(C)C)n1cccc1C=O | 21.37% | 14.09 | – | – | – | – | – | – | – |
| COC(=O)Cn1cccc1C=O | 33.73% | 11.87 | – | – | – | – | – | – | – |
